Assay results reported in patent US6818640B1, “2-imino-1,3-thiazine derivatives” (Shionogi & Co., Ltd., priority 1999, dated 2004).
Where two headings read alike, the source gives them in different places.

How the values were obtained:
human CB2R [1] = target: T1, human CB2R (Homo sapiens, UniProt P34972); assay: Human CB2 receptor (CB2R) binding inhibition, [3H]CP55940, membranes of CB2R-expressing CHO cells
T1 construct: The coding region of human CB2R cDNA; expressed in transfected cells
Protocol: The prepared vector was transfected into Chinese Hamster Ovary (CHO) cells with LipofectAMINE reagent (Gibco BRL) according to the manufacture's protocol, and the stable CB2R-expressing clones were selected.
(§1) The crude membrane fractions were then prepared from the CB2R-expressing CHO cells. Receptor binding assay was performed by incubating the membranes with each test compound and [^3H]CP55940 (at a final concentration of 0.5 nM: NEN Life Science Products) in the assay buffer (50 mM Tris-HCl, 1 mM EDTA, 3 mM MgCl2, pH 7.4) containing 0.5% bovine serum albumin (BSA) for 2 hr at 25° C. The incubation mixture was filtered through 1% polyethylenimine (PEI)-treated GF/C glass filter and washed with 50 mM Tris-HCl (pH 7.4) containing 0.1% BSA. The radioactivity was then counted with a liquid scintillation counter.
(§2) For the receptor binding assay of human CB1 receptor (CB1R), the stable CB1R-expressing CHO cells were prepared as described above, and the binding assay was performed with their membrane fractions. As a consequence of these studies, the Ki values of each test compound for both cannabinoid receptors were determined, which were presented in Table 89.

[2] = target: T2, human CB1 receptor (CB1R) (Homo sapiens, UniProt P21554); assay: Receptor binding assay of human CB1 receptor (CB1R), membranes of CB1R-expressing CHO cells
T2 construct: expressed in transfected cells
T2 sequence (P21554 whole entry): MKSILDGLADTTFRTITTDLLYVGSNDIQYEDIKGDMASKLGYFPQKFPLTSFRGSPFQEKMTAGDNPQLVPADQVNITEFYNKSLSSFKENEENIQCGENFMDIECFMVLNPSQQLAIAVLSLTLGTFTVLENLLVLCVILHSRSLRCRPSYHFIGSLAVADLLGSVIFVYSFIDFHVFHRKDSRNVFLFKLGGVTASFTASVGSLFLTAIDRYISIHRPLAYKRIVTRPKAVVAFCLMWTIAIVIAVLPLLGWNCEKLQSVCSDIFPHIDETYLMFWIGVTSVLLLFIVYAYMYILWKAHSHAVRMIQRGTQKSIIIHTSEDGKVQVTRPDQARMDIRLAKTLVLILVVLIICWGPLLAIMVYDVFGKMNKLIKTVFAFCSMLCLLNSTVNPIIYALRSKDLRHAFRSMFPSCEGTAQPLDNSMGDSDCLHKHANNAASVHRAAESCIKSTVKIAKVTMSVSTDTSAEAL
Protocol: as §1, §2

human CB2R [3] = target: T1, human CB2R; assay: CB2R-mediated suppression of forskolin-stimulated cAMP synthesis (agonistic activity), CHO cells expressing human CB2R; type: cell-based
Protocol: After the incubation, 4 μM forskolin (Sigma) was added and the cells were incubated for 20 min at 37° C. The reaction was stopped by the addition of 1N HCl and the amount of cAMP in the cell supernatant was measured using an EIA kit (Amersham Pharmacia Biotech) according to the manufacture's protocol.

[4] = test system: SRBC-induced DTH reaction; assay: Sheep red blood cell (SRBC)-induced delayed type hypersensitive (DTH) reaction, foot pad swelling; type: in vivo; settings: female ddY mice, measured after 24 hrs
Protocol: Female ddY mice (7 weeks old) were used for the sheep red blood cell (SRBC)-induced delayed type hypersensitive (DTH) reaction.
Cannabinoid receptor agonist, I-6, I-60, I-77 and I-118 were suspended in 0.6% arabic gum solution. Mice were sensitized by the intradermal injection of 10^7 cells of SRBC (40 μl/foot) into the left hind foot pad. After 5 days, DTH reaction was induced by the intradermal injection of 10^8 cells of SRBC in the right hind foot pad. Test compounds were administerd p.o. (10 ml/kg) 1 hr before and 5 hr after the induction of DTH reaction. After 24 hrs of the injection of SRBC, the left and right foot pad volumes were measured by the water displacement method. The foot pad swelling was calculated as the differences in the volumes between the right and left hind foot pad, and used as an index of the DTH reaction.
Data are expressed as the inhibition percentage of each compound. Statistical analysis was performed with Welch's t-test, in which the value of P<0.05 is considered as a significant difference.

[5] = dose 30 mg/kg p.o. 1 hr before and 5 hr after induction

T1 sequence (P34972 whole entry): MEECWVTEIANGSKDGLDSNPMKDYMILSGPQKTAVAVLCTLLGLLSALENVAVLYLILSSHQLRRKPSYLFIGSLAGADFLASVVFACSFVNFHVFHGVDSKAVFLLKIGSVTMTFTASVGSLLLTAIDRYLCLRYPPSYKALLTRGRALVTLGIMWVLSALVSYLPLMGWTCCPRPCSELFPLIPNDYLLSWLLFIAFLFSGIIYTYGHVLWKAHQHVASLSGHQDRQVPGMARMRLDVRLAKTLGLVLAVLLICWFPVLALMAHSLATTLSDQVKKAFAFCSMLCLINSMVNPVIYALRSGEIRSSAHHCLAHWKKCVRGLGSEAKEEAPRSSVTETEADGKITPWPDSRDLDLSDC

Structure (SMILES)	Ki (human CB2R [1]) [nM]	Ki [2] [nM]	other results
CCOc1ccc(/N=C2\SCC(C)(C)CN2C(=O)OC)cc1OCC	–	–	melting point: 75 to 76 °C
CCOC(=O)N1CC(C)(C)CSC1=Nc1ccccc1C(C)C	–	–	melting point: 84 to 86 °C
CSC(=S)N1CC(C)(C)CSC1=Nc1ccccc1C(C)C [Compound I-5, 2-(2-isopropylphenyl)imino-3-(methylthio)thiocarbonyl-5,5-dimethyl-1,3-thiazine]	61	> 5000	melting point: 77 to 79 °C; IC50 (human CB2R [3]): 6.5 nM
CCSC(=O)N1CCSC1=Nc1ccccc1C(C)C [Compound I-6, 3-(ethylthiocarbonyl)-2-(2-isopropylphenyl)imino-1,3-thiazolidine]	9	–	melting point: 79 to 81 °C; Inhibition percentage (foot pad swelling, DTH reaction) ([4]; dose 40 mg/kg p.o. 1 hr before and 5 hr after induction): 45.2%; IC50 (human CB2R [3]; CHO cells expressing human CB2R, 4 μM forskolin, read-out: IC50 (inhibition of forskolin-stimulated cAMP synthesis)): 2.7 nM
CCSC(=O)N1CC(C)(C)CSC1=Nc1ccccc1C(C)CC (stereo not drawn) [Compound I-23]	29	> 5000	IC50 (human CB2R [3]): 2.6 nM
CSC(=O)N1CC(C)(C)CSC1=Nc1ccccc1C(C)C [Compound I-50]	39	> 5000	–
CCC(C)c1ccccc1N=C1SCC(C)(C)CN1C(=O)SC (stereo not drawn) [Compound I-51]	23	–	IC50 (human CB2R [3]): 2.8 nM
CSC(=O)N1CC(C)(C)CSC1=Nc1cccc(C(C)C)c1 [Compound I-52]	35	–	–
CCc1ccccc1N=C1SCC(C)(C)CN1C(=S)SC [Compound I-56]	54	–	–
CCC(C)c1ccccc1N=C1SCC(C)(C)CN1C(=S)SC (stereo not drawn) [Compound I-57]	6	4130	IC50 (human CB2R [3]): 5.5 nM
COc1ccccc1N=C1SCC(C)(C)CN1C(=S)SC [Compound I-60]	18	2100	Inhibition percentage (foot pad swelling, DTH reaction) [4, 5]: 31.1%
CSC(=S)N1CC(C)(C)CSC1=Nc1ccccc1SC [Compound I-62]	44	–	–
CSC(=S)N1CC(C)(C)CSC1=Nc1cccc(C(C)C)c1 [Compound I-69]	33	–	–
CSC(=S)N1CC(C)(C)CSC1=Nc1ccc(C)c(C)c1 [Compound I-74]	48	–	–
COc1ccc(N=C2SCC(C)(C)CN2C(=S)SC)cc1OC [Compound I-77]	53	–	Inhibition percentage (foot pad swelling, DTH reaction) [4, 5]: 33.8%
CCSC(=S)N1CC(C)(C)CSC1=Nc1ccccc1C(C)C [Compound I-84]	35	> 5000	–
CCSC(=S)N1CC(C)(C)CSC1=Nc1ccccc1C(C)CC (stereo not drawn) [Compound I-85]	25	–	–
